Legend:
[1] = system: human skin (subject's back); test: In vivo SPF determination (FDA 21 CFR 201.327, MEDp/MEDu)
Excerpt: SPF can be measured in vivo according to the methodology set out in FDA 2011 Final Rule issued on Jun. 17, 2011, by the Federal Register. This method is very similar to the ISO 24444:2010 method used to measure SPF in the EU, as well as other countries. In fact, both methods are based on the International Sun Protection Factor (SPF) test method, COLIPA: Bruxelles, Belgium, 2006. The slight differences between the ISO and FDA methods are understood to generate no meaningful difference in the results. […] The main differences between the methods are the following: the calibration times of the UV source (each 12 months for the FDA, each 18 months for the ISO); the reference sunscreen products (P2 for the FDA and P2, P3 or P7 for the ISO); progressions of exposure times used. The disclosures of each of these in vivo SPF testing methods are incorporated herein their entirety by this reference.
The product is then labeled with the appropriate SPF value indicating the amount of sunburn protection provided by the product.
An in vivo SPF determination was conducted according to FDA, 21 CFR Sec. 201.327, subpart (i), SPF Test Procedure, Sunscreen Drug Products for Over-the-Counter Human Use, Final Monograph, Federal Register, Vol. 76, No. 117, Jun. 17, 2011, the disclosure of which is incorporated herein in its entirety by this reference. […]
For a baseline value, a series of 5 UV radiation doses expressed as Joules/square meter, increasing in 25% increments, was administered to two unprotected separate locations on each test subject's back, just below the shoulder blades and above the belt-line, to determine the initial unprotected MED (MEDu).
On Day 2, subjects returned to the testing laboratory within 16 to 24 hours following completion of the MEDu doses for evaluation of their responses, and to determine each subject's unprotected MED (MEDu). A subject's Minimal Erythemal Dose (MED) was the quantity of erythema effective energy, or dose corresponding to the first site that produced the first unambiguous erythema reaction with well-defined borders. […]

[2] = In vitro SPF determination on VitroSkin, absorbance scan 290-400 nm; type: physicochemical
Experimental: SPF can also be evaluated using an in vitro method that utilizes a synthetic/simulated skin as a test substrate. In this regard, VitroSkin® is an advanced testing substrate that effectively mimics the surface properties of human skin. It has been formulated to have topography, pH, critical surface tension, chemical reactivity and ionic strength that is similar to human skin.
SPF was also evaluated using an in vitro method that utilizes a synthetic/simulated skin as a test substrate. In this regard, VitroSkin® is an advanced testing substrate that effectively mimics the surface properties of human skin. It has been formulated to have topography, pH, critical surface tension, chemical reactivity and ionic strength that is similar to human skin. The procedure for in vitro testing was conducted according to a standard protocol. For testing, the test product was applied in a known amount to the substrate at an application density of 2 mg/cm^2. The in vitro SPF scores were determined using a Labsphere UV-1000 Ultraviolet Transmittance Analyzer. Spectral scans of absorbance of the artificial skin treated with a sample sunscreen formulation were performed in the UV region of 290-400 nm. The in vitro SPF was then calculated using the absorbance scan results. At least 5 in vitro SPF values were recorded for each example formulation and the averages calculated for reporting.

Vero E6 fibroblasts = test: Cellular toxicity compared to oxybenzone; type: cell-based
Excerpt: (§1) The amount of gadusol incorporated to provide the intended in vivo sunscreen SPF boosting activity can be from about 0.25, 0.50, 0.75, 1.0, 1.25, 1.50, 1.75, or 2.0% (w/w) in the sunscreen formulation that includes a physical/inorganic sunscreen active material, where any value can form an upper or lower endpoint, as appropriate. Still further, the amount of gadusol in the sunscreen formulation can be from about 0.25 to 2.0% (w/w), or from about 0.5 to 1.0% (w/w). In these, and possibly other amounts, gadusol suitably can provide a safe and effective sunscreen boosting effect when combined with sunscreen active ingredients. […] To summarize these safety tests, the cellular toxicity of gadusol was compared to that of a common sunscreen ingredient, oxybenzone. Vero E6 fibroblasts were used to evaluate toxicity. […] Toxicity towards E. coli was also not found.

Ames Test = type: cell-based
Comet assay = type: cell-based
Excerpt: as §1

E. coli = test: Toxicity towards E. coli; type: cell-based
Excerpt: as §1

[3] = Stability of aqueous gadusol under acidic conditions, spectrophotometric at 296 nm; type: physicochemical
Experimental: Yet further, the inventors have determined that the stability of aqueous gadusol can be improved when stored under acidic conditions. For example, 90% gadusol activity can be retained after 90 days at pH 2.5, where the concentration of gadusol is determined spectrophotometrically at 296 nm where it has an extinction coefficient of 21,800 M^−1cm^−1. A standardized concentration curve can be used to determine an amount of gadusol in a volume sampled from a test solution at various time periods. Therefore, storage under acidic conditions may be useful for stabilizing gadusol generally, e.g., prior to introduction into a topical formulation. Combining gadusol with another antioxidant may be useful for extending the shelf life or stability of gadusol in a topical formulation.

[4] = Folin-Ciocalteu antioxidant capacity; settings: about 0.3 to 10 mg/ml
erythrocytes = test: Cell-based antioxidant protection in erythrocytes (CAP-e) assay
Experimental: The cell-based antioxidant protection in erythrocytes (CAP-e) assay (Honzel et. al., 2008, and Jensen G S. Cell-based antioxidant protection assay, also disclosed in U.S. Pat. No. 8,465,988, incorporated herein in its entirety by this reference) was used. This testing was selected to measure antioxidant power but, in addition, the method ensures that the antioxidant agent crosses the cell's lipid boundary layer so that only intracytoplasmic activity is measured. […] The tested concentrations for both gadusol and the porphyra-334 ranged from 0.001 to 3.33 mg/mL.

SMILES	in vivo SPF relative to SPF conferred by 10% ZnO alone ([1]; 0.5% gadusol (w/w) in 10% ZnO formulation)	in vivo SPF relative to SPF conferred by 10% ZnO alone ([1]; 0.75% gadusol (w/w) in 10% ZnO formulation)	in vivo SPF relative to SPF conferred by 10% ZnO alone ([1]; 1.0% gadusol (w/w) in 10% ZnO formulation)	in vitro SPF activity of gadusol by itself, formulation matrix (1.1) subtracted ([2]; 0.25-0.5% gadusol, no ZnO)	greater SPF when added to composition containing 10% ZnO ([2]; 0.5% (w/w) gadusol, in vitro)	in vitro absorbance on addition to 10% ZnO sunscreen formulation ([2]; 0.5% gadusol, about 290 to about 325 nm, FIG. 6)	cellular toxicity (Vero E6 fibroblasts)	mutagenicity (Ames Test)	toxicity in the comet assay (Comet assay)	toxicity towards E. coli (E. coli)	gadusol activity retained ([3]; aqueous, after 90 days at pH 2.5)	extinction coefficient ([3]; at 296 nm)	antioxidant power versus mycosporine compound from nori seaweed (porphyra-334) [4]	antioxidant activity (erythrocytes; 0.133 mg/ml)	antioxidant activity versus porphyra-334 (erythrocytes; about 1 mg/ml)	interference with the protective action of gadusol when combined (erythrocytes; gadusol and porphyra-334 combined)
COC1=C(O)CC(O)(CO)C(O)C1=O (stereo not shown) [gadusol]	about 1.35 times	~1.51 times	~2.0 times	2.5-2.8 SPF units	~50%	significantly more absorbance	less toxic	not to be mutagenic	nor was it toxic	not found	90%	21,800 M^−1cm^−1	substantially equivalent	Some in vivo antioxidant activity	significantly more active	–
COC1=C(NCC(=O)O)C[C@@](O)(CO)CC1=N[C@H](C(=O)O)[C@@H](C)O [porphyra-334, reference compound]	–	–	–	–	–	–	–	–	–	–	–	–	–	–	–	did not interfere

Source: patent publication US20230157935A1, “GADUSOL-CONTAINING SUNSCREEN FORMULATIONS” (Arcaea, LLC, priority 2021, published 2023)
